Assay results reported in patent publication US20250339443A1, “METHOD FOR TREATING OR PREVENTING CALCIUM RELEASE-ACTIVATED CALCIUM CHANNEL OR DISCOIDIN DOMAIN RECEPTOR 2 RELATED DISORDERS OR CONDITIONS” (LumiSTAR Biotechnology, Inc., priority 2023, published 2025).
Counter-ions that a name gives are not always drawn. Each block holds one compound with its values, some of them ahead of it.

Legend:
[1] = test system: THP-1 derived macrophages; assay: Cytokine secretion in macrophages (ELISA); format: cell-based, human; conditions: IFN-γ/LPS induction, culture medium
Jurkat T cells = assay: Cytokine secretion in T cells (ELISA); format: cell-based, human; conditions: PHA/PMA induction, culture medium
DDR2 = target: T1, DDR2 (Homo sapiens, UniProt Q16832); assay: DDR2 activation (anti-phosphotyrosine Western blot) in HEK293T cells overexpressing DDR2, collagen-stimulated; format: cell-based; conditions: 10 μM pretreatment 30 minutes, then 50 μg/mL type I collagen 12 hours
T1 construct: expressed in transfected cells; host or cells: HEK293T
T1 sequence (Q16832 22-855): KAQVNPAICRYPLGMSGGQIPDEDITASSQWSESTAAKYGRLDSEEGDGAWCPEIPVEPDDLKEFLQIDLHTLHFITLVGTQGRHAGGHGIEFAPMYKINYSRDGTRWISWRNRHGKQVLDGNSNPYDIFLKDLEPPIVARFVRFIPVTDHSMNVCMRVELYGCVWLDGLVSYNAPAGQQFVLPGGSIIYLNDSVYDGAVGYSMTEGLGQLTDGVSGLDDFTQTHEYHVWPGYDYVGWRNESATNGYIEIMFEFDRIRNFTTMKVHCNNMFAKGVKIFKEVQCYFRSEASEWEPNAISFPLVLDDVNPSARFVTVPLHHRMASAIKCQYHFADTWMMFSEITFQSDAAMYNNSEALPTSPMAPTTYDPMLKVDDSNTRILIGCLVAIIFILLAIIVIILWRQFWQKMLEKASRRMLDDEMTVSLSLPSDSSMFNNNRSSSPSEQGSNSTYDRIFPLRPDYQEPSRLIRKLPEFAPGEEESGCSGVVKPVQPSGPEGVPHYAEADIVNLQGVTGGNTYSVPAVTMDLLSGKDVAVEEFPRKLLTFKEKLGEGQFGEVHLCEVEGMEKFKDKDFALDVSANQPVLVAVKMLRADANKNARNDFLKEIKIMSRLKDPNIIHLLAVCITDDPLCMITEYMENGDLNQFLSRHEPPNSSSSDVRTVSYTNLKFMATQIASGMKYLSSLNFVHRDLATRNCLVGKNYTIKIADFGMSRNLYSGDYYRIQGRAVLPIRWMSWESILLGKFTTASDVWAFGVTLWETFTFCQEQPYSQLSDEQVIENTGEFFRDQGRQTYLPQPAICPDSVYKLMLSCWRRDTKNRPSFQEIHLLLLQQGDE
Protocol: FIG. 1A, FIG. 1B, FIG. 1C, FIG. 1D, FIG. 1E, FIG. 1F, FIG. 1G, FIG. 1H, FIG. 1I, FIG. 1J, FIG. 1K, FIG. 1L, FIG. 1M, and FIG. 1N show WRG-28 and atovaquone (Av) suppress the activation of DDR2 and calcium release-activated calcium (CRAC) channel. FIG. 1A indicates HEK293T cells were transiently overexpressed with DDR2 and then pretreated with different compounds (10 μM), including WRG-28, Av, donepezil hydrochloride (Dh), terazosin hydrochloride (Th), verapamil and flecainide for 30 minutes. Verapamil and flecainide were used as negative control here. After that, cells were treated with 50 μg/mL type I collagen for 12 hours. Cell lysates were harvested and subjected to Western blot analysis with antibodies against phosphotyrosine antibody (clone 4G10), DDR2, and β-actin. […] CRAC channel activity was evaluated by applying 1 μM thapsigargin (Thap.) in a calcium-free solution to deplete the endoplasmic reticulum calcium store, followed by the reintroduction of 2 mM Ca^2+ in an external solution. […] Further analyses are presented in FIG. 1I and FIG. 1J, where the second peak of each wave and rate of entry were analyzed. […] The Orai1 and Stim1 puncta in HEK293T cells overexpressed with CFP-Orai1/Stim1-mCherry were assessed. […]
Cell lysates were harvested in RIPA buffer (150 mM NaCl, 1 mM EGTA, 50 mM Tris pH 7.4, 10% glycerol, 1% Triton X-100, 1% sodium deoxycholate, 0.1% SDS, and protease inhibitor cocktail) and collected from culture dish with cell scrapers. […] The protein expression levels were assessed by specific primary antibodies, including antibodies against phosphotyrosine (clone 4G10; Millipore), DDR2 (R&D), α-SMA (Sigma), Collagen 1a1 (Boster), E-cadherin (BD Biosciences), SGLT2 (Proteintech), NHE1 (Novus) and β-actin (Clone C4, Millipore), followed by incubating with secondary antibodies conjugated with HRP and detected by ECL kit (Thermo Scientific).
To examine the impact of these compounds on DDR2 activation, HEK293T cells overexpressing DDR2 were pretreated with various compounds. […] The activation of DDR2 was evaluated using an anti-phosphotyrosine antibody. […]

CRAC channel = CRAC channel (Homo sapiens, UniProt Q96D31); assay: CRAC channel activity / SOCE by Fura 2-AM cytosolic Ca2+ imaging in HEK293T cells; format: cell-based; parameters: endogenous in cells; host or cells: HEK293T; conditions: 10 μM, 1 μM thapsigargin then 2 mM Ca2+
Protocol: CRAC channel activity was evaluated by applying 1 μM thapsigargin (Thap.) in a calcium-free solution to deplete the endoplasmic reticulum calcium store, followed by the reintroduction of 2 mM Ca^2+ in an external solution. The concentration of cytosolic calcium ions increases as calcium flows through the CRAC channel, leading to the second peak in cytosolic calcium waves. […] Each bar represents the mean value derived from 47 to 103 cells. […] Each bar represents the mean value derived from 83 to 176 cells. […] Further analyses are presented in FIG. 1I and FIG. 1J, where the second peak of each wave and rate of entry were analyzed. Each bar represents the mean value derived from 72 to 108 cells. […] In all the graphs, each bar represents mean±SEM and *, **, and *** denote p-value <0.05, 0.01, and 0.001, respectively.
Cells were then washed and incubated with the same solution in addition to the supplement of Fura 2-AM for another 15 minutes for fully de-esterification. […] 1 μM thapsigargin was added to induce endoplasmic reticulum (ER) calcium store depletion followed by applying 2 mM calcium solution to assess the activation of calcium release-activated calcium (CRAC) channels. Cells were alternately excited at 340 and 380 nm, and images were acquired every 2 seconds. […] All the images were analyzed by using IGOR Pro software. […]

[2] = test system: BLM-induced pulmonary fibrosis; assay: Bleomycin-induced lung fibrosis mouse model; format: in vivo; conditions: 14 days, Nintedanib 60 mg/kg/day, WRG-28 5 mg/kg/day, Av 5 mg/kg/day
Text: A Bleomycin (BLM)-induced lung fibrosis mouse model was used, and the timelines of operation and drug delivery are depicted in FIG. 11A. […] The hydroxyproline content, serving as a marker of collagen deposition, was extracted from the right lobe and analyzed; the results are shown in FIG. 11C. FIG. 11D depicts histological analysis derived from the left lobe, quantifying the fibrotic area through staining with Masson's Trichrome and Picrosirius red, respectively.
8-to-10-week-old male WT (C57BL/6) mice received intratracheal instillation of bleomycin (bleocin; Nippon Kayaku) at the dose of 3 mg/kg diluted in PBS or PBS only (sham). To study fibrosis, lung samples were collected on day 21 for further analysis.
Lung function was assessed using the flexi Vent system (Scireq, Montreal, QC, Canada). Mice were tracheostomized and ventilated at a rate of 150 breaths/min, tidal volume of 10 ml/kg, and a positive end-expiratory pressure (PEEP) of 2-3 cmH2O. A deep inflation perturbation was used to estimate the inspiratory capacity (IC). Pressure-Volume loops were generated by constant increasing pressure, followed by regular decreasing pressure. Other lung function parameters like resistance, compliance, and elastance were measured by using SnapShot-150.
Levels of hydroxyproline in lung tissues were measured using the Hydroxyproline Colorimetric Assay kit (BioVision, Milpitas, CA, USA). Briefly, 10 mg of frozen right middle lobes homogenized in 100 μL of hydrochloric acid (HCl, 12 N), and hydrolyzed at 120° C. for 3 h. Then, 10 μL of individual samples were used to quantify the absorbance at 560 nm. Hydroxyproline content was presented in μg per lobe.
Mouse left lungs were fixed overnight in 4% paraformaldehyde (PFA), embedded in paraffin, and sectioned in 5 μm thickness for picrosirius red (Abcam, Cambridge, UK) and Masson's trichrome staining (Sigma Aldrich, MO, USA). Measurement of fibrotic area was quantified using ImageJ software (NIH, http://rsbweb.nih.gov/ij/).
The efficacy of WRG-28 and Av in treating pulmonary fibrosis was examined in vivo using a BLM-induced pulmonary fibrosis mouse model for evaluation. 50 μL of Bleomycin (BLM, 3 mg/kg) or PBS were introduced by intratracheal instillation on day 0 to induce fibrosis or serve as the control group, respectively. This was followed by the administration of various compounds for 14 days (Nintedanib: 60 mg/kg/day, WRG-28:5 mg/kg/day, Av: 5 mg/kg/day). Lung function evaluation was conducted on day 21 (FIG. 11A). Nintedanib, an FDA-approved drug for idiopathic pulmonary fibrosis (IPF) treatment, was used as the positive control. The results of the lung function evaluation are depicted in FIG. 11B. […] The degree of these changes can be reversed through treatment with Nintedanib, WRG-28 or Av. […] Histological analysis was conducted through staining techniques to quantify the fibrotic area.

Sequence of CRAC channel (Q96D31 whole entry): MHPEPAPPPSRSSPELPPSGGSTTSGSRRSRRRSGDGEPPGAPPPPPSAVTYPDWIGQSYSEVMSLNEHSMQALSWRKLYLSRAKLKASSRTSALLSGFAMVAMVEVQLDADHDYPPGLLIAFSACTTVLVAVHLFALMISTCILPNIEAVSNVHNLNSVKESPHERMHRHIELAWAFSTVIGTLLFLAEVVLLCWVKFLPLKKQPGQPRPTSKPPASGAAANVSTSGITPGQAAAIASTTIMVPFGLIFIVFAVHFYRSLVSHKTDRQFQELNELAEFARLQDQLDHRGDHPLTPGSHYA

Compound: Cc1cccc(F)c1C(=O)Nc1cnc(-c2cc3c(cc2Cl)OC(F)(F)O3)cn1 [CM-4620]
secretion of IL-2 in macrophages [1]: significantly reduced
secretion of IL-6 in macrophages [1]: significantly reduced
secretion of TNF-β in macrophages [1]: significantly reduced
secretion of IL-2 in T cells (Jurkat T cells): significantly reduced

activation of DDR2 (phosphotyrosine) (DDR2): significantly reduced
second peak and rate of SOCE (CRAC channel): did not show significant effects
Compound: COc1cc2c(cc1OC)C(=O)C(CC1CCN(Cc3ccccc3)CC1)C2 (stereo not shown) [Dh, donepezil hydrochloride]

Compound: COC(=O)c1ccc2c(c1)NC(=O)/C2=C(\Nc1ccc(N(C)C(=O)CN2CCN(C)CC2)cc1)c1ccccc1 [Nintedanib]
BLM-induced changes in lung function (capacity, compliance, resistance, elastance) ([2]; day 21): reversed
fibrotic area (Masson's trichrome and Picrosirius Red staining) ([2]; left lobe): effectively reduces
hydroxyproline content (degree of fibrosis) ([2]; right lobe): inhibits the progression of fibrosis

activation of DDR2 (phosphotyrosine) (DDR2): significantly reduced
Compound: COc1cc2nc(N3CCN(C(=O)C4CCCO4)CC3)nc(N)c2cc1OC (stereo not shown) [Th, terazosin hydrochloride]
